RP-LC retention time data for 80 compounds are collected here from the METLIN SMRT retention time set (Domingo-Almenara et al. 2019).

This data set can be described thus: gradient 5% acetonitrile 3 min, to 50% in 2 min, to 85% in 15 min, held 3 min, 100 µL/min. Particulars: column: Zorbax Extend-C18 2.1 x 50 mm; eluents: water / acetonitrile, 0.1% formic acid. A digest of the protocol:
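A Zorbax Extend-C18 column (2.1 × 50 mm, 1.8 μm) run at 100 μL/min with water and acetonitrile, both containing 0.1% formic acid, separated mixtures of ~100 pure standards. The HPLC was coupled to a quadrupole time-of-flight mass spectrometer operated in positive and negative ionization mode, with dead and dwell volumes of 40 μL and 900 μL. Each retention time was taken from a computationally picked adduct peak that was then manually inspected.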
In the case of `O=C(Cn1c(=O)c2cccn2c2ccc(F)cc21)NCc1cccs1`, the RP-LC retention time is 785 s.
In turn, `O=C(Cc1ccc(NC(=O)Nc2ccc3c(c2)OCO3)cc1)NCC(F)(F)F` displayed an RP-LC retention time of 716 s.
For `CCCCn1cc(S(=O)(=O)Nc2ccccc2C)c2cccnc21` the value was 985 s; for `COc1ccc(NC(=O)CCc2c(C)nn(-c3cc(N(C)C)ncn3)c2C)cc1`, 733 s.
Turning to `Cc1ccc2oc(-c3noc(C(=O)NCCCN4CCCC4)n3)c(C)c2c1`, the RP-LC retention time amounted to 717 s.
As for `Cc1cc(-c2nnc(-c3ccccc3)o2)c(C)n1CC(=O)NCc1ccc(Cl)cc1`, the figure is 982 s; as for `Cn1c(C2CCN(C(=O)Nc3ccc(Br)cc3F)CC2)cc(=O)n2nccc12`, 694 s.
For `O=C(NCC(=O)N1CCc2ccccc21)Nc1cccc(Br)c1`, the RP-LC retention time worked out at 894 s.
For `CC(C)c1ccc(Sc2ccc(N3CCC(C(=O)NCCN(C)C)CC3)nn2)cc1` the value was 658 s; for `CCc1nc(-c2c(C)cc(C)nc2NC(=O)c2ccc(F)cc2)no1`, 812 s; for `CC(C)CCNC(=O)C1CCCCC(=O)N1` (stereo not given), 670 s.
For `CCN(CC)c1ccc(NC(=O)C2CCCN(c3ccc(=O)n(-c4cccc(Cl)c4)n3)C2)c(C)c1` (stereo not given) the value was 662 s; for `Cc1ccnc(NC(=O)c2ccc(Cn3cncn3)cc2)c1`, 593 s.
For `CCN(CC)C(=O)c1cc(=O)[nH]c2ccccc12` the value was 624 s.
Regarding `Cn1c(=O)n(C)c2cc(CNc3ccc(C(=O)O)cc3)ccc21`, the RP-LC retention time stood at 687 s.
With `Cn1cccc1C(=O)C(=O)N1CCN(C(c2ccccc2)c2ccccc2)CC1`, the RP-LC retention time is 824 s.
For `O=S(=O)(c1ccc2c(c1)-c1oncc1CO2)N1CCN(C(c2ccccc2)c2ccccc2)CC1` the value was 1130 s; for `Cc1ccc(-c2nc3cc(C)ccn3c2NC(=O)c2ccc(Cl)cc2)cc1`, 742 s; for `COc1cccc2cc(-c3nnc(NC(=O)c4ccc5ncsc5c4)o3)oc12`, 725 s.
For `O=C(O)Cc1sc(Nc2ccccc2)nc1-c1ccccc1` the value was 858 s; for `COCc1nnc(-c2ccc(F)cc2)o1`, 740 s; for `CC1=C(c2ccc(C)c(C)c2)S(=O)(=O)N=C1N1CCCN(C(=O)NCCC(C)C)CC1`, 906 s.
For the compound `Cc1noc(C)c1CCC(=O)N1CCCCC1c1nncn1C` (stereo not given), the RP-LC retention time was found to be 607 s.
`N#Cc1ccc(C(=O)N2CCN(c3cc(-c4ccc(F)cc4)[nH]n3)CC2)cc1`: the RP-LC retention time was 767 s.
Turning to `CCCC(=O)Nc1ccc2nc(N3CCN(CC(=O)NCCOC)CC3)cc(C(=O)O)c2c1`, the RP-LC retention time was found to be 839 s.
For `CCOC(=O)c1[nH]c(C)c(CCC(=O)N2CCC(C(=O)NCCc3ccccc3)CC2)c1C` the value was 795 s; for `COc1ccc(OC)c(-c2cn3ccn(-c4cccc(Cl)c4)c(=O)c3n2)c1`, 887 s.
As for `CCOCC(=O)Nc1ccc2c(c1)Sc1ncccc1C(=O)N2C(C)C`, the figure is 764 s; as for `CC(C)Cn1c(=O)c(-c2ccc(C(=O)NCc3ccncc3)cc2)nc2ccccc21`, 681 s.
For `CCn1cc(C(=O)Nc2ccc(C)cc2Cl)c2cccnc21` the value was 984 s; for `CCN(CC)c1nc2ccsc2c(=O)n1CC(=O)NCc1ccc(Cl)cc1`, 908 s; for `O=C(C1CCN(c2ncnc3c2oc2ccccc23)CC1)N1CCN(c2ccc(Cl)cc2)CC1`, 891 s.
For `CN1C[C@@H](CO)C=C2c3cccc4[nH]cc(c34)C[C@@H]21`, the RP-LC retention time is 607 s.
For `CC1(CNS(=O)(=O)c2ccc(F)c(Cl)c2)CCOCC1` the value was 861 s; for `Cc1ccc(C)c(NC(=O)CCc2nc(N3CCOCC3)c3c(C)noc3n2)c1`, 763 s; for `O=C(Cc1c[nH]c2ccccc12)N1CCN(c2cc(-c3cccs3)[nH]n2)CC1`, 756 s.
As for `Cc1ccn2c(NC(=O)c3ccc(Br)cc3)c(-c3ccccc3)nc2c1`, the figure is 709 s.
For `Cc1nc(C(=O)NCC2CCCCC2)c(C)o1` the value was 922 s.
On to `CCC(CC)c1nnc(NC(=O)C2CC(=O)N(CCc3c[nH]c4ccc(C)cc34)C2)s1` (stereo not given), for which the RP-LC retention time was 856 s.
Take `Cc1ccc(NC(=O)N(C)CC2CCOC2)cc1F` (stereo not given): the RP-LC retention time was determined as 722 s.
The compound `CCS(=O)(=O)c1ccc2c(c1)N(Cc1nc(-c3ccc(F)cc3)no1)C(=O)CO2` gave an RP-LC retention time of 902 s.
As for `CCN(c1ccccc1)S(=O)(=O)c1cc2c3c(c1)CCC(=O)N3CCC2`, the figure is 910 s; as for `C[C@H]1CN(C(=O)c2ccccc2F)C[C@@H]1c1nc(-c2ccccc2)no1`, 1020 s; as for `Cc1nn(C)c(C)c1CCN(C)c1nc(C2CC2)nc2c1CCC2`, 604 s.
Compound `COc1ccc(NS(=O)(=O)c2cn(C(C)C)c3ncccc23)cc1OC` registered an RP-LC retention time of 876 s.
Compound `Cc1cc(-c2nnc(-c3ccco3)o2)c(C)n1CC(=O)NCc1ccccc1` showed an RP-LC retention time of 826 s.
In turn, `Cc1ccc(-c2cc3c4nnc(CCC(=O)N5CCN(C(=O)c6ccco6)CC5)n4ccn3n2)cc1C` yielded an RP-LC retention time of 759 s.
Consider `Clc1cccc(Cc2nc(-c3ccc(-n4ccnc4)nc3)no2)c1`, for which the RP-LC retention time came to 764 s.
In turn, `COc1ccc2cc(C(=O)NCCC(=O)NCCc3c[nH]c4ccccc34)[nH]c2c1` had an RP-LC retention time of 775 s.
As to `O=C(NCc1csc(C2CCCN(C(=O)c3ccccc3)C2)n1)C1CCC1` (stereo not given), the RP-LC retention time was 712 s.
Regarding `CNC(=O)C1CCCN(c2nc3ncn(CC(=O)Nc4ccc(C)cc4C)c(=O)c3s2)C1` (stereo not given), the RP-LC retention time amounted to 646 s.
`O=C(Cn1cnc2c(sc3nc(-c4ccccc4)ccc32)c1=O)Nc1ccccc1` yielded an RP-LC retention time of 986 s.
On to `COc1cccc(CN2CCC([C@H]3[C@@H](OC)C(=O)N3C(C)C)CC2)n1`, for which the RP-LC retention time was determined as 602 s.
In turn, `CCN1c2ccc(C)cc2C(=O)NC12CCN(C(=O)c1cccc(F)c1)CC2` registered an RP-LC retention time of 835 s.
In turn, `Cc1nc(-c2ccccc2OC2CN(S(=O)(=O)Cc3ccccc3)C2)no1` had an RP-LC retention time of 916 s.
As for `CC(C(=O)N1CCN(c2cc(=O)n(C)c(=O)n2C)CC1)N1C(=O)COc2ccccc21` (stereo not given), the figure is 627 s; as for `CCOc1ccc(CC(=O)NC(CC(C)C)C(=O)Nc2nc3ccccc3[nH]2)cc1OCC` (stereo not given), 758 s.
As for `COCCOCc1nc(C2CCCN2C(=O)c2sccc2C)no1` (stereo not given), the figure is 716 s; as for `Cc1oc(-c2ccccc2)nc1Cc1noc(COc2ccccc2)n1`, 1090 s.
For `Cc1cc2c(cc(C(=O)N3CCC(C(=O)NC4CCCC4)CC3)n2Cc2c(F)cccc2Cl)o1` the value was 998 s.
On to `Cc1csc(C(=O)Nc2ccc(CC(=O)N3CCC(O)CC3)cc2)c1`, for which the RP-LC retention time stood at 635 s.
As for `O=C(NC1CCCc2c1[nH]c1c(Cl)cccc21)c1ccncc1` (stereo not given), the figure is 850 s.
For `CCn1cc(C(=O)NCCC(C)C)c2nn(-c3ccccc3)c(=O)c-2c1` the value was 878 s; for `Cc1nc(C)c(C(=O)N2CCC(Oc3ccc(-c4noc(-c5ccccc5)n4)cc3)C2)s1` (stereo not given), 1080 s; for `CCn1cc(C(=O)Nc2ccc(C)c(C)c2)c(S(=O)(=O)N2CCSCC2)n1`, 1050 s.
As to `CCOc1ccccc1NC(=O)CN1c2ccc(F)cc2-c2ccccc2S1(=O)=O`, the RP-LC retention time came out at 1090 s.
For `Nc1cc(-c2cccs2)nn1CCO` the value was 562 s; for `CCOc1cc(=O)c(C(=O)N2CCC(C(N)=O)CC2)nn1-c1ccc(F)cc1`, 595 s.
The compound `Cc1ccc(Nc2nc(N3CCN(c4ncccn4)CC3)nc3c2C(=O)CCC3)cc1` registered an RP-LC retention time of 1220 s.
As for `COc1cccc(CNC(=O)c2c(C)sc3ccn(Cc4ccc(F)cc4)c(=O)c23)c1`, the figure is 980 s; as for `CCN1C(=O)c2cc(S(=O)(=O)Nc3cccc(Cl)c3)ccc2Oc2cccnc21`, 1060 s.
As for `COc1ccc(C2(C(=O)N3CCC4(CC3)CC(C)(O)CCO4)CC2)cc1` (stereo not given), the figure is 707 s; as for `O=C(Nc1cccc(Br)c1)N1CCc2nc[nH]c2C1`, 614 s; as for `CC(C)N1CCn2cc(S(=O)(=O)Nc3ccc(Cl)cc3F)cc2C1=O`, 812 s.
Regarding `O=C(NCc1ccc(C(F)(F)F)cc1)C1CCN(c2nnc3ccc(Cl)cn23)CC1`, the RP-LC retention time came to 718 s.
For `COc1ccc(-c2noc(Cc3nnc(-c4cc(C)cc(C)c4)o3)n2)cc1OC` the value was 997 s; for `CS(=O)(=O)N1CCC(OC2CCN(C(=O)c3ccccc3)CC2)CC1`, 709 s; for `CCn1ccc2c(cc(C(=O)Nc3ccc(C)c(Cl)c3)n2C)c1=O`, 907 s.
For `O=c1c2cc(-c3cccs3)nn2cnn1Cc1nc(-c2ccc(Cl)cc2)no1` the value was 1150 s; for `CCOC(=O)C1CCCN(Cc2nc3nc(C)cc(N4CCCCCC4)n3n2)C1` (stereo not given), 620 s.
